The record followed here is publication PMC6072100, “Exploring the links between peptoid antibacterial activity and toxicity” (MedChemComm, 2017).

Structures are written as SMILES. “And” between values parts separate entries of the source, which are not always exact repeats. Equal values may be shown once. Read-outs that look alike come from different tables or passages of the source. Square brackets hold non-standard residues; d marks the D form. Peptide text beside a SMILES is read from it. Gly(Nα-4-Cl-benzyl) = O=C(O)CNCc1ccc(Cl)cc1; N(4-F-Bzl)Gly = O=C(O)CNCc1ccc(F)cc1; Nspe = C[C@H](NCC(=O)O)c1ccccc1; Nlys = NCCCCNCC(=O)O

Common to all, as to type: cell-based
The subject of test [1] is Escherichia coli K-12 wild-type strain (W3110/ATCC27325). Particulars: lowest concentration completely inhibiting growth, 37 °C, 16 h; range 2–100 μM. A digest of the protocol:
(§1)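 Peptoids (DMSO stock, diluted in Iso-sensitest broth) are serially halved to give 2–100 µM final in wells with equal volume of bacterial inoculum, standardised to 0.5 McFarland then diluted 10×. After 16 h at 37 °C with shaking, absorbance gives growth; triplicates.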

The subject of test [2] is Pseudomonas aeruginosa PA01 (ATCC 15692). A digest of the protocol:
as §1

The test system of test [3] is Staphylococcus aureus (3R7089 strain Oxford/ATCC9144). A digest of the protocol: as §1
In test [4] the test system is Staphylococcus epidermidis (laboratory strain from clinical isolate). Particulars: 16 h. Put shortly: as §1
The mark [5] stands for this setting: lowest concentration completely inhibiting growth, 37 °C, 16 h, range 2–100 μM.
The mark [6] stands for this setting: lowest concentration completely inhibiting growth, 37 °C, range 2–100 μM.

Turning to `C[C@@H](c1ccccc1)N(CC(N)=O)C(=O)CN(C(=O)CN(CCCCN)C(=O)CN(C(=O)CN(C(=O)CN(CCCCN)C(=O)CN(C(=O)CN(C(=O)CN(CCCCN)C(=O)CN(C(=O)CN(C(=O)CNCCCCN)[C@@H](C)c1ccccc1)[C@@H](C)c1ccccc1)[C@@H](C)c1ccccc1)[C@@H](C)c1ccccc1)[C@@H](C)c1ccccc1)[C@@H](C)c1ccccc1)[C@@H](C)c1ccccc1` [Peptoid 13, (NLysNspeNspe)4] (H-[Nlys][Nspe][Nspe][Nlys][Nspe][Nspe][Nlys][Nspe][Nspe][Nlys][Nspe][Nspe]-NH2), in test [1], the “MIC E. coli” value turned out to be 25 µM. Moreover, in test [2] (setting [5]), the “MIC P. aeruginosa” value was 50 µM. Moreover, the “MIC S. aureus” value in test [3] (setting [5]) worked out at 2 µM. In addition, the “MIC S. epidermidis” value in test [4] (setting [6]) is 1 µM.
The like results for `NCCCCNCC(=O)N(CC(=O)N(CC(=O)N(CCCCN)CC(=O)N(CC(=O)N(CC(=O)N(CCCCN)CC(=O)N(CC(=O)N(CC(N)=O)Cc1ccc(F)cc1)Cc1ccc(F)cc1)Cc1ccc(F)cc1)Cc1ccc(F)cc1)Cc1ccc(F)cc1)Cc1ccc(F)cc1` [Peptoid 23, (NLysNpfbNpfb)3] (H-[Nlys][N(4-F-Bzl)Gly][N(4-F-Bzl)Gly][Nlys][N(4-F-Bzl)Gly][N(4-F-Bzl)Gly][Nlys][N(4-F-Bzl)Gly][N(4-F-Bzl)Gly]-NH2) were, in that order, 13 µM, 25 µM, 3 µM and 3 µM.
For `NCCCCNCC(=O)N(CC(=O)N(CC(=O)N(CCCCN)CC(=O)N(CC(=O)N(CC(=O)N(CCCCN)CC(=O)N(CC(=O)N(CC(N)=O)Cc1ccc(Cl)cc1)Cc1ccc(Cl)cc1)Cc1ccc(Cl)cc1)Cc1ccc(Cl)cc1)Cc1ccc(Cl)cc1)Cc1ccc(Cl)cc1` [Peptoid 21, (NLysNpcbNpcb)3] (H-[Nlys][Gly(Nα-4-Cl-benzyl)][Gly(Nα-4-Cl-benzyl)][Nlys][Gly(Nα-4-Cl-benzyl)][Gly(Nα-4-Cl-benzyl)][Nlys][Gly(Nα-4-Cl-benzyl)][Gly(Nα-4-Cl-benzyl)]-NH2) the same measures were 50 µM, 25 µM, 3 µM and 2 µM.
In the case of `NCCCCNCC(=O)N(CC(=O)N(CC(=O)N(CCCCN)CC(=O)N(CC(=O)N(CC(=O)N(CCCCN)CC(=O)N(CC(=O)N(CC(=O)N(CCCCN)CC(=O)N(CC(=O)N(CC(N)=O)Cc1ccc(Cl)cc1)Cc1ccc(Cl)cc1)Cc1ccc(Cl)cc1)Cc1ccc(Cl)cc1)Cc1ccc(Cl)cc1)Cc1ccc(Cl)cc1)Cc1ccc(Cl)cc1)Cc1ccc(Cl)cc1` [Peptoid 20, (NLysNpcbNpcb)4] (H-[Nlys][Gly(Nα-4-Cl-benzyl)][Gly(Nα-4-Cl-benzyl)][Nlys][Gly(Nα-4-Cl-benzyl)][Gly(Nα-4-Cl-benzyl)][Nlys][Gly(Nα-4-Cl-benzyl)][Gly(Nα-4-Cl-benzyl)][Nlys][Gly(Nα-4-Cl-benzyl)][Gly(Nα-4-Cl-benzyl)]-NH2), in test [1], the “MIC E. coli” value was 100 µM and > 100 µM. Besides, the “MIC P. aeruginosa” value in test [2] (ATCC 15692, 16 h) is over 100 µM; in test [2] (setting [5]), 100 µM. Also, the “MIC S. aureus” value in test [3] (setting [5]) came to 25 µM. Further, in test [4] (setting [6]), the “MIC S. epidermidis” value came out at 6 µM.
Take `C[C@@H](c1ccccc1)N(CC(N)=O)C(=O)CN(C(=O)CN(CCN)C(=O)CN(C(=O)CN(C(=O)CNCCN)[C@@H](C)c1ccccc1)[C@@H](C)c1ccccc1)[C@@H](C)c1ccccc1` [Peptoid 18, (NaeNspeNspe)2]: in test [1], the “MIC E. coli” value is over 100 µM. Further, the “MIC P. aeruginosa” value was over 100 µM in test [2] (ATCC 15692, 16 h) and 100 µM in test [2] (setting [5]). The “MIC S. aureus” value in test [3] (ATCC9144, 16 h) is over 100 µM; in test [3] (setting [5]), 100 µM. Also, the “MIC S. epidermidis” value is over 100 µM in test [4] (laboratory strain from clinical isolate) and 100 µM in test [4] (setting [6]).
